Test results taken from patent US10689367B2, “Triazole pyridyl compounds as agonists of the APJ receptor” (AMGEN INC., priority 2016, dated 2020).

Molecular target: human APJ receptor (Homo sapiens (Human), UniProt P35414)
Assay: [35S]GTPγS binding assay on membranes from CHO cells stably expressing human APJ receptor
Assay type: biochemical
Details: membranes of CHO cells stably expressing human APJ receptor, read-out: Activity hAPJ SPA EC50 IP
Procedure, shortened: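 [35S]GTPγS binding measured on membranes from CHO cells stably expressing FLAG-tagged human APJ, with GDP, MgCl2 and NaCl levels optimized beforehand. Incubation 90 min at RT, imager read-out; EC50 from non-linear regression, averaged over several independent experiments.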

human APJ receptor, sequence (P35414 whole entry): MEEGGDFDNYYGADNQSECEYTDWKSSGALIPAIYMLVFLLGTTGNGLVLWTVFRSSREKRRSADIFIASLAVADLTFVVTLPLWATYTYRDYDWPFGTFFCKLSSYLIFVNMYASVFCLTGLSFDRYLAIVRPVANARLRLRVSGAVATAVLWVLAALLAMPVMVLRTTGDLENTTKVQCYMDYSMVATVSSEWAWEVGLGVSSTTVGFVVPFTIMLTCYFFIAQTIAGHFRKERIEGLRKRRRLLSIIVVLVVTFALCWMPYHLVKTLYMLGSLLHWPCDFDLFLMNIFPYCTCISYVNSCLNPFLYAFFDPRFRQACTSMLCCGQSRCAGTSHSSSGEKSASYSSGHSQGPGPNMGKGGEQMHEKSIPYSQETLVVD

Structure (SMILES) | EC50
COc1cccc(-c2nnc(NS(=O)(=O)[C@@H](C)[C@H](OC)c3ncc(C)cn3)n2C2CC2)n1 [Example 120.0] | 0.024 µM
COc1cnc([C@@H](OC)[C@H](C)S(=O)(=O)Nc2nnc(-c3cccc(OC)n3)n2C2CC2)cn1 [Example 121.0] | 0.021 µM
COc1cccc(-c2nnc(NS(=O)(=O)[C@@H](C)[C@H](OC)c3cnc(C)cn3)n2C2CC2)n1 [Example 122.0] | 0.056 µM
COc1cccc(-c2nnc(NS(=O)(=O)[C@@H](C)[C@@H](OC(C)C)c3cnc(C)cn3)n2C2CC2)n1 [Example 123.0] | 0.0056 µM
COC[C@@H](C)n1c(NS(=O)(=O)[C@@H](C)[C@H](OC)c2ncc(Cl)cn2)nnc1-c1ccccn1 [Example 124.0] | 0.024 µM
COC[C@@H](C)n1c(NS(=O)(=O)[C@@H](C)[C@H](OC)c2ncc(Cl)cn2)nnc1-c1cccnc1 [Example 125.0] | 0.09 µM
COC[C@@H](C)n1c(NS(=O)(=O)[C@@H](C)[C@H](OC)c2ncc(Cl)cn2)nnc1-c1cncc(C)c1 [Example 126.0] | 0.038 µM
CC(C)O[C@@H](c1ncc(Cl)cn1)[C@H](C)S(=O)(=O)Nc1nnc(-c2ccccn2)n1C1CC1 [Example 127.0] | 0.048 µM
CC(C)O[C@@H](c1ncc(Cl)cn1)[C@H](C)S(=O)(=O)Nc1nnc(-c2cccnc2)n1C1CC1 [Example 128.0] | 0.055 µM
Cc1cncc(-c2nnc(NS(=O)(=O)[C@@H](C)[C@@H](OC(C)C)c3ncc(Cl)cn3)n2C2CC2)c1 [Example 129.0] | 0.066 µM
CO[C@H](c1ncc(Cl)cn1)[C@H](C)S(=O)(=O)Nc1nnc(-c2ccccn2)n1C [Example 130.0] | 0.35 µM
CCn1c(NS(=O)(=O)[C@@H](C)[C@H](OC)c2ncc(Cl)cn2)nnc1-c1ccccn1 [Example 131.0] | 0.025 µM
COCCn1c(NS(=O)(=O)[C@@H](C)[C@H](OC)c2ncc(Cl)cn2)nnc1-c1ccccn1 [Example 132.0] | 0.15 µM
CO[C@H](c1ncc(Cl)cn1)[C@H](C)S(=O)(=O)Nc1nnc(-c2cccnc2)n1C(C)C [Example 134.0, (1R,2S)-1-(5-chloro-2-pyrimidinyl)-1-methoxy-N-(4-(2-propanyl)-5-(3-pyridinyl)-4H-1,2,4-triazol-3-yl)-2-propanesulfonamide] | 0.17 µM
CO[C@H](c1ncc(Cl)cn1)[C@H](C)S(=O)(=O)Nc1nnc(-c2ccncc2)n1C(C)C [Example 135.0, (1R,2S)-1-(5-chloro-2-pyrimidinyl)-1-methoxy-N-(4-(2-propanyl)-5-(4-pyridinyl)-4H-1,2,4-triazol-3-yl)-2-propanesulfonamide] | 1.9 µM
CO[C@H](c1ncc(Cl)cn1)[C@H](C)S(=O)(=O)Nc1nnc(-c2ccccn2)n1C(C)C [Example 136.0, (1R,2S)-1-(5-chloro-2-pyrimidinyl)-1-methoxy-N-(4-(2-propanyl)-5-(2-pyridinyl)-4H-1,2,4-triazol-3-yl)-2-propanesulfonamide] | 0.057 µM
COc1cccc(-c2nnc(NS(=O)(=O)[C@@H](C)[C@H](OC)c3ncc(Cl)cn3)n2CC2CCO2)n1 (stereo partly drawn) [Example 137.0, (1R,2S)-1-(5-chloropyrimidin-2-yl)-1-methoxy-N-(5-(6-methoxypyridin-2-yl)-4-(oxetan-2-ylmethyl)-4H-1,2,4-triazol-3-yl)propane-2-sulfonamide] | 0.022 µM

Structure (SMILES) | EC50
[2H]C1([2H])C(n2c(NS(=O)(=O)[C@@H](C)[C@H](OC)c3ncc(Cl)cn3)nnc2-c2cccc(OC)n2)C1([2H])[2H] [Example 148.0, (1R,2S)-1-(5-Chloropyrimidin-2-yl)-N-(4-(cyclopropyl-2,2,3,3-d4)-5-(6-methoxypyridin-2-yl)-4H-1,2,4-triazol-3-yl)-1-methoxypropane-2-sulfonamide] | 0.0068 µM
CO[C@H](c1ncc(Cl)cn1)[C@H](C)S(=O)(=O)Nc1nnc(-c2cncc(C)c2)n1C1CC1 [Example 149.0, (1R,2S)-1-(5-Chloropyrimidin-2-yl)-N-(4-cyclopropyl-5-(5-methylpyridin-3-yl)-4H-1,2,4-triazol-3-yl)-1-methoxypropane-2-sulfonamide] | 0.036 µM
COc1cccc(-c2nnc(NS(=O)(=O)[C@@H](C)[C@H](OC)c3ncc(Cl)cn3)n2C2C3(CC3)C23CC3)n1 [Example 163.0, (1R,2S)-1-(5-Chloropyrimidin-2-yl)-N-(4-(dispiro[2.0.24.13]heptan-7-yl)-5-(6-methoxypyridin-2-yl)-4H-1,2,4-triazol-3-yl)-1-methoxypropane-2-sulfonamide] | 0.052 µM
[2H]C1([2H])C(n2c(NS(=O)(=O)[C@@H](C)[C@@H](OC(C)C)c3ncc(C)cn3)nnc2-c2cccc(OC)n2)C1([2H])[2H] [Example 164.0, (1S,2S)—N-(4-(Cyclopropyl-2,2,3,3-d4)-5-(6-methoxypyridin-2-yl)-4H-1,2,4-triazol-3-yl)-1-isopropoxy-1-(5-methylpyrimidin-2-yl)propane-2-sulfonamide] | 0.011 µM
COc1cccc(-c2nnc(NS(=O)(=O)[C@@H](C)[C@H](OC)c3ncc(Cl)cn3)n2[C@@H]2C[C@@H]2F)n1 [Example 169.0, (1R,2S)-1-(5-Chloropyrimidin-2-yl)-N-(4-((1R,2S)-2-fluorocyclopropyl)-5-(6-methoxypyridin-2-yl)-4H-1,2,4-triazol-3-yl)-1-methoxypropane-2-sulfonamide] | 0.02 µM
COc1ccc(Cn2c(NS(=O)(=O)[C@@H](C)[C@H](OC)c3ncc(Cl)cn3)nnc2-c2cccc(OC)n2)cc1 [Example 170.0, (1R,2S)-1-(5-chloropyrimidin-2-yl)-1-methoxy-N-(4-(4-methoxybenzyl)-5-(6-methoxypyridin-2-yl)-4H-1,2,4-triazol-3-yl)propane-2-sulfonamide] | 0.00076 µM
COCC(COC)n1c(NS(=O)(=O)[C@@H](C)[C@@H](OC(C)C)c2ncc(F)cn2)nnc1-c1cccc(OC)n1 [Example 171.0, (1S,2S)-N-(4-(1,3-dimethoxy-2-propanyl)-5-(6-methoxy-2-pyridinyl)-4H-1,2,4-triazol-3-yl)-1-(5-fluoro-2-pyrimidinyl)-1-(2-propanyloxy)-2-propanesulfonamide] | 0.00037 µM
COCC(COC)n1c(NS(=O)(=O)[C@@H](C)[C@@H](OC(C)C)c2ncc(OC)cn2)nnc1-c1cccc(OC)n1 [Example 172.0, (1S,2S)-N-(4-(1,3-dimethoxy-2-propanyl)-5-(6-methoxy-2-pyridinyl)-4H-1,2,4-triazol-3-yl)-1-(5-methoxy-2-pyrimidinyl)-1-(2-propanyloxy)-2-propanesulfonamide] | 0.0014 µM
COC[C@H](C)n1c(NS(=O)(=O)[C@@H](C)[C@H](C)c2ncc(Cl)cn2)nnc1-c1cccc(OC)n1 [Example 174.0, (2S,3R)-3-(5-chloro-2-pyrimidinyl)-N-(4-((2S)-1-methoxy-2-propanyl)-5-(6-methoxy-2-pyridinyl)-4H-1,2,4-triazol-3-yl)-2-butanesulfonamide] | 0.0033 µM
COC[C@H](C)n1c(NS(=O)(=O)[C@@H](C)[C@H](C)c2ncc(Cl)cn2)nnc1-c1ccccn1 [Example 175.0, (2S,3R)-3-(5-chloro-2-pyrimidinyl)-N-(4-((2S)-1-methoxy-2-propanyl)-5-(2-pyridinyl)-4H-1,2,4-triazol-3-yl)-2-butanesulfonamide] | 0.03 µM
COC[C@H](C)n1c(NS(=O)(=O)[C@@H](C)[C@H](C)c2ncc(Cl)cn2)nnc1-c1cncc(C)c1 [Example 176.0, (2S,3R)-3-(5-chloro-2-pyrimidinyl)-N-(4-((2S)-1-methoxy-2-propanyl)-5-(5-methyl-3-pyridinyl)-4H-1,2,4-triazol-3-yl)-2-butanesulfonamide] | 0.11 µM
COc1cccc(-c2nnc(NS(=O)(=O)[C@@H](C)[C@@H](OC(C)C)c3ncc(Cl)cn3)n2C(C)C)n1 [Example 177.0, (1S,2S)-1-(5-chloro-2-pyrimidinyl)-N-(5-(6-methoxy-2-pyridinyl)-4-(2-propanyl)-4H-1,2,4-triazol-3-yl)-1-(2-propanyloxy)-2-propanesulfonamide] | 0.0089 µM
COC[C@@H](C)n1c(NS(=O)(=O)[C@@H](C)[C@@H](OC(C)C)c2ncc(Cl)cn2)nnc1-c1cccc(OC)n1 [Example 178.0, (1S,2S)-1-(5-chloro-2-pyrimidinyl)-N-(4-((2R)-1-methoxy-2-propanyl)-5-(6-methoxy-2-pyridinyl)-4H-1,2,4-triazol-3-yl)-1-(2-propanyloxy)-2-propanesulfonamide] | 0.00032 µM
COC[C@H](C)n1c(NS(=O)(=O)[C@@H](C)[C@@H](OC(C)C)c2ncc(Cl)cn2)nnc1-c1cccc(OC)n1 [Example 179.0, (1S,2S)-1-(5-chloro-2-pyrimidinyl)-N-(4-((2S)-1-methoxy-2-propanyl)-5-(6-methoxy-2-pyridinyl)-4H-1,2,4-triazol-3-yl)-1-(2-propanyloxy)-2-propanesulfonamide] | 0.00064 µM
COc1cccc(-c2nnc(NS(=O)(=O)[C@@H](C)[C@H](OC)c3ncc(Cl)cn3)n2[C@H]2C[C@@H](OC)C2)n1 [Example 180.0, (1R,2S)-1-(5-chloro-2-pyrimidinyl)-1-methoxy-N-(4-(cis-3-methoxycyclobutyl)-5-(6-methoxy-2-pyridinyl)-4H-1,2,4-triazol-3-yl)-2-propanesulfonamide] | 0.074 µM
COc1cccc(-c2nnc(NS(=O)(=O)[C@@H](C)[C@H](OC)c3ncc(Cl)cn3)n2[C@H]2C[C@H](OC)C2)n1 [Example 181.0, (1R,2S)-1-(5-chloro-2-pyrimidinyl)-1-methoxy-N-(4-(trans-3-methoxycyclobutyl)-5-(6-methoxy-2-pyridinyl)-4H-1,2,4-triazol-3-yl)-2-propanesulfonamide] | 0.19 µM
COc1cccc(-c2nnc(NS(=O)(=O)[C@@H](C)[C@H](OC)c3ncc(Cl)cn3)n2C2CCC2)n1 [Example 182.0, (1R,2S)-1-(5-chloro-2-pyrimidinyl)-N-(4-cyclobutyl-5-(6-methoxy-2-pyridinyl)-4H-1,2,4-triazol-3-yl)-1-methoxy-2-propanesulfonamide] | 0.025 µM
